Literature values, collected in patent US20250295115A1, “USE OF HERBICIDAL COMPOSITIONS BASED ON L-GLUFOSINATE IN TOLERANT FIELD CROPS” (BASF SE, priority 2017, published 2025).

System: perennial weeds and brush
Conditions: as taught by U.S. Pat. No. 4,265,654

## CP(=O)(O)CC[C@H](N)C(=O)O (single isomer, unassigned) [L-isomer]
  Effectiveness compared with the racemic acid: twice as effective
